Series [1] is described as follows: Stability test, left open at 25° C., content of 25-hydroxycholecalciferol by HPLC. The class given is physicochemical. The note with it: for Content of 25-hydroxycholecalciferol: left open at 25° C. The protocol: 6. Stability Test the 25-hydroxycholecalciferol monohydrate crystal prepared in the present embodiment was left open at 25° C., and a content of 25-hydroxycholecalciferol contained therein was tested after one month, three months and six months respectively, and meanwhile, 25-hydroxycholecalciferol was used as a control example, and the results were shown in Table 2. The content of 25-hydroxycholecalciferol was measured by the following method: taking a sample to prepare a solution of about 10 μg/mL, injecting 20 μL for a HPLC analysis, and calculating the content thereof according to an external standard method. Test conditions of the HPLC were as follows: chromatographic column: C18 column; internal diameter: 4.6 mm; length: 150 mm, particle size: 5 μm; detection wavelength: 265 nm; temperature of column: 30° C.; flow rate: 1.5 mL/min (which may be adjusted according to desired retention time and a degree of separation of 25-hydroxycholecalciferol and a 25-hydroxycholecalciferol precursor); injection volume: 20 uL; and recording time: 2 times the retention time of main peak.

For series [2] the following is noted: cited from earlier work.

The values below come from patent US11584713B2, “25-hydroxycholecalciferol monohydrate crystal, preparation method therefor and microemulsion using same” (SHANDONG HAINENG BIOENGINEERING CO., LTD., priority 2018, dated 2023).

SMILES strings stand for the structures.

`C=C1CC[C@H](O)C/C1=C/C=C1\CCC[C@]2(C)[C@@H]([C@H](C)CCCC(C)(C)O)CC[C@@H]12` [25-hydroxycholecalciferol monohydrate]: the “Loss of 25-hydroxycholecalciferol (in words)” value in series [1] (after six months of being left open at 25° C.) is given as “almost no loss”. Also, the “Content of 25-hydroxycholecalciferol” value stood at 99.60% in series [1] (0 day), 99.05% in series [1] (one month), 96.59% in series [1] (six months) and 98.46% in series [1] (three months).
Regarding `C=C1CC[C@H](O)C/C1=C/C=C1\CCC[C@]2(C)[C@@H]([C@H](C)CCCC(C)(C)O)CC[C@@H]12` [25-hydroxycholecalciferol], the “solubility in diethyl ether” value in series [2] (diethyl ether) was “slightly soluble”. The “solubility in dimethyl sulfoxide” value in series [2] (dimethyl sulfoxide) is listed as “easily soluble”. Besides, the solubility in ethanol entry in series [2] (ethanol) is “easily soluble”. Besides, the solubility in methanol entry in series [2] (methanol) was “easily soluble”. In addition, in series [2] (water), the solubility in water result is “almost insoluble”. The “Content of 25-hydroxycholecalciferol” value in series [1] (0 day) turned out to be 99.23%; in series [1] (one month) it was 65.03%; in series [1] (six months) it was 29.61%; in series [1] (three months), 47.65%.
